Laboratory results: US20210388012A1, “METHODS AND COMPOSITIONS FOR PRODRUG FORMS OF SPECTINOMYCIN AND SPECTINAMIDE ANALOGS” (priority 2018, published 2021)

Columns and labels:
[1] = Metabolic stability, human liver microsomal degradation; assay type: in vitro ADME; details: human liver microsomes; read-out: Metabolic Stability (Human) t½ (converted)
Description: (§1) LC-MS Method 2. Chromatographic separation was performed on an Acquity UPLC BEH C18 1.7 μm, 2.1×50 mm column (Waters Corporation, Milford, Mass.) or a Luna Omega 1.6 μm C18, 2.1×50 mm column (Phenomenex, Torrance, Calif.) using an Acquity ultra performance liquid chromatography system. Data were acquired using Masslynx v. 4.1 and analyzed using the Openlynx software suite. This was coupled to an Acquity photodiode array detector, which acquired UV data from 210-400 nm. The flow was then split, with half directed to an evaporative light scattering detector (ELSD) and half to an SQ mass spectrometer. The total flow rate was 1 mL/min. The sample injection volume was 10 μL. The UPLC column was maintained at 60° C. and the gradient program with either basic mobile phase (A1, 10 mM ammonium bicarbonate in MilliQ H2O; B1, 0.1% formic acid in acetonitrile) or formic mobile phase (A1, 0.1% formic acid in MilliQ H2O; B1, 0.1% formic acid in acetonitrile) based on the compounds' physical and chemical properties. The mass spectrometer was operated in positive-ion mode with electrospray ionization. The conditions were as follows; capillary voltage 3.4 kV, cone voltage 30 V, source temperature 130° C., desolvation temperature 400° C., desolvation gas 800 L/hr, cone gas 100 L/hr. A full scan range from m/z=110-1000 in 0.2 s was used to acquire MS data. The ELSD-drift tube temperature was set at 52° C.
The stability of compounds to human liver microsomal degradation, i.e., metabolic stability, was determined as described previously (see North, E. J., et al, Bioorg. Med. Chem. (2013) 21(9):2587-2599) and the rate of degradation was monitored by LC-MS analysis using multiple sampled time points as described herein above in LC-MS Method 2. Metabolic stability was evaluated via the half-life from least squares fit of the concentration remaining at the time points based on first-order kinetics.

in vitro = in vitro ADME; details: human plasma, 37° C., read-out: Plasma Stability (Human) t½ (converted)
Description: as §1
Plasma stability was determined after incubation in human plasma for various incubation time, i.e., incubation times of 0, 3, 24, and 48 hour were used. DMSO stock solutions of test compounds were prepared at 10 mM concentration. 1.8 μL of each test compound was each added directly to 1.8 mL of human plasma to get the final concentration of 10 μM. This compound/matrix was mixed and 70 μL was transferred to 4 time points plates (each in triplicate wells). […] The plasma stability was evaluated via the half-life from least-squares fit of the multiple time points based on first-order kinetics.

[2] = Single ascending maximum tolerated dose study in rat; assay type: in vivo; details: female Sprague-Dawley rats
Description: Several compounds were assessed in single ascending maximum tolerated studies. The compounds assessed were 1810; 3408, a prodrug form of compound 1810; 1599, a chloro homologue of compound 1810; and gentamicin, an antimicrobial associated with ototoxicity. The study was carried out in female Sprague-Dawley rats (n=3 per group). All the drug solutions were prepared in water and PLASMA-LYTE A (50:50; […] was obtained from Baxter Healthcare Corporation, Deerfield, Ill.). Each group of rats were fasted overnight with access to water aJ libitum and a fixed volume (2 mL) of drug-containing solution was administered via the jugular vein catheter. Food was withheld for 3 h post dosing. Different phases of the study were classified on five different speeds of i.v, administration; Phase 1: 5 sec, Phase 2: 30 sec, Phase 3: 5 min, Phase 4: 15 min, Phase 5: 30 min. In the first and second phases, a set of predefined dose levels: 10, 25, 50, 75, 100, 150, 300, 350, 400, 450 and 500 mg/kg. Escalation to the next higher dose was conditional upon absence of signs of acute toxicity following the immediate lower dose over a 24 h period. All animals were monitored by visual inspection focused on focus on changes in skin, fur, eyes, and also respiratory, circulatory, autonomic and central nervous systems, along with somatomotor activity and behavior pattern, including tremors, convulsions, salivation, diarrhea, lethargy, sleep and coma. A dose level was deemed an MTD if […] of acute toxicity were observed and that dose was chosen for the second phase of the study where the process was repeated to determine a toxic dose. For third, fourth and fifth phases, dosing solution was infused by a Instech tethering system (Instech Laboratories Inc., Plymouth Meeting, Pa.) where the animal is freely moving within its cage, the catheter connection is held in place by a vascular access harness and a swivel system, and the drug administration is performed via a Harvard Apparatus programmable syringe pump. After dosing, the tether was removed immediately after completion of the infusion and the catheter was flushed with (100 μL) PlasmaLyte A. Surviving animals from the previous dose with no signs of toxicity were re-used in either phases of these studies upon allowing a one day drug washout period.

Molecule | half-life [1] [h] | half-life at 10 µM (in vitro) [h] | MTD ([2]; 5 second IV bolus) [mg/kg] | MTD ([2]; 30 second IV bolus) [mg/kg] | MTD ([2]; 5 minute IV infusion) [mg/kg] | MTD ([2]; 15 minute IV infusion) [mg/kg] | MTD ([2]; 30 minute IV infusion) [mg/kg]
CCOP(=O)(OCC)Oc1ccc(CC(=O)N[C@@H]2C[C@@H](C)O[C@H]3O[C@@H]4[C@@H](O)[C@H](NC)[C@H](O)[C@H](NC)[C@H]4O[C@]32O)nc1 [Compound 3906, Diethyl (6-(2-oxo-2-(((2R,4R,4aS, 5aR,6S,7S,8R,9S,9aR,10aS)-4a,7,9-trihydroxy-2-methyl-6,8-bis(methylamino)decahydro-2H-benzo[b]pyrano[2,3-e][1,4]dioxin-4-yl)amino)ethyl)pyridin-3-yl) phosphate] | 3.61 | 19.5 |  |  |  |  | 
CN[C@@H]1[C@H](O)[C@H](NC)[C@H]2O[C@]3(O)[C@H](O[C@@H]2[C@H]1O)O[C@H](C)C[C@@]3(O)CNCc1ccc(F)c(OP(=O)(O)O)c1 [Compound 3959, 2-fluoro-5-(((((2R,4R,4aS,5aR,6S,7S,8R,9S,9aR,10aS)-4,4a,7,9-tetrahydroxy-2-methyl-6,8-bis(methylamino)decahydro-2H-benzo[b]pyrano[2,3-e][1,4]dioxin-4-yl)methyl)amino)methyl)phenyl dihydrogen phosphate] | 1.84 |  |  |  |  |  | 
CN[C@@H]1[C@H](O)[C@H](NC)[C@H]2O[C@]3(O)[C@H](O[C@@H]2[C@H]1O)O[C@H](C)C[C@H]3NC(=O)Cc1ccc(-c2ccc(OP(=O)(O)O)cc2)cn1 [Compound 4074, 4-(6-(2-oxo-2-(((2R, 4R, 4aS, 5aR, 6S, 7S, 8R, 9S, 9aR, 10aS)-4a,7,9-trihydroxy-2-methyl-6,8-bis(methyl-amino)decahydro-2H-benzo[b]pyrano[2,3-e][1,4]dioxin-4-yl)amino)ethyl)pyridin-3-yl)phenyl dihydrogen phosphate] | 2.98 | < 0.0833 |  |  |  |  | 
gentamicin [reference compound] |  |  | 100 | 100 | 200 | 300 | 400
